From patent US20260146044A1, “AROMATIC COMPOUND, PHARMACEUTICAL COMPOSITION CONTAINING SAME, AND USE THEREOF” (Increland, priority 2023, published 2026)

These molecules were tested on secretion levels of IL-6 in PBMC cells (assay: Inhibition of R848-induced IL-6 secretion in PBMC (IL-6 ELISA)). Conditions: human PBMC, 20 h compound pre-incubation, 24 h stimulation.
Assay type: cell-based
Experimental: This experiment was carried out in RPMI 1640 medium containing 10% FBS/1% penicillin/streptomycin, with each of the compounds at an initial test concentration of 1 μM. The compound DMSO was dissolved to form a stock solution, which was gradiently diluted 4-fold with the culture medium to a 4× working solution concentration. The diluted solution was added to a 96-well plate with 50 μL per well. PBMC (batch No.: HPP20062307, Sichuan Hope Bio-tech Co., Ltd.) cells were counted, and diluted to a concentration of 2×10^6/mL. The diluted cells were added to the above compound-containing 96-well plate with 150 μL per well, fully mixed, and incubated in an incubator with 5% CO2 at 37° C. for 20 h. Then, R848 was further added until a final concentration of […], and the cells were further incubated in the incubator with 5% CO2 at 37° C. for additional 24 h. Then, after centrifugation at 2,000 rpm for 4 min, the supernatant was diluted 110×, and detected using an IL-6 ELISA kit. An OD450 value was read, and converted to an IL-6 concentration based on a standard curve, to calculate an IC50 value by fitting a dose-effect curve using GraphPad 5.0.
Molecule `COc1cc2nn([C@H]3CC[C@H](CN4CCC(c5cccc6c5c(C)nn6C5CCC(=O)NC5=O)CC4)CC3)cc2cc1NC(=O)c1cnn2ccc(N3CCOCC3)nc12` (stereo partly drawn) [TM-27] has an IC50 of 46.8 nM.
`COc1cc2nn([C@H]3CC[C@H](CN4CCN(c5cccc6c5c(C)nn6C5CCC(=O)NC5=O)CC4)CC3)cc2cc1NC(=O)c1cnn2ccc(N3CCOCC3)nc12` (stereo partly drawn) [TM-28] gave an IC50 of 23.3 nM.
Work on `COc1cc2nn([C@H]3CC[C@H](CN4CCN(c5cccc6c5c(C)nn6C5CCC(=O)NC5=O)CC4)CC3)cc2cc1NC(=O)c1cccc(C(F)(F)F)n1` (stereo partly drawn) [TM-29] yielded an IC50 of 56.3 nM.
With `Cc1nn(C2CCC(=O)NC2=O)c2cccc(N3CC4CN(C[C@H]5CC[C@H](n6cc7cc(NC(=O)c8cnn9cccnc89)c(N8C[C@@H]9C[C@H]8CO9)cc7n6)CC5)CC4C3)c12` (stereo partly drawn) [TM-46] the IC50 was 46.8 nM.
`Cc1nn(C2CCC(=O)NC2=O)c2cccc(N3CCN(C[C@H]4CC[C@H](n5cc6cc(NC(=O)c7cnn8cccnc78)c(N7CCO[C@H](C)C7)cc6n5)CC4)CC3)c12` (stereo partly drawn) [TM-54] was tested, and the IC50 was 4.26 nM.

What follows are molecules tested on secretion levels of IL-6 in PBMC cells (assay: Inhibition of LPS+IL-1β-induced IL-6 secretion in PBMC (IL-6 ELISA)). Conditions: human PBMC, 24 h compound pre-incubation, 20 h stimulation.
Assay type: cell-based
Experimental: This experiment was carried out in RPMI 1640 medium containing 10% FBS/1% penicillin/streptomycin, with each of the compounds at an initial test concentration of 1 μM. The compound DMSO was dissolved to form a stock solution, which was gradiently diluted 5-fold with the culture medium to a 4× working solution concentration. The diluted solution was added to a 96-well plate with 50 μL per well. PBMC (batch No.: HPP20062307, Sichuan Hope Bio-tech Co., Ltd.) cells were counted, and diluted to a concentration of 2×10^6/mL. The diluted cells were added to the above compound-containing 96-well plate with 150 μL per well, fully mixed, and incubated in an incubator with 5% CO2 at 37° C. for 24 h. Then, LPS and […] were further added to final concentrations of 10 ng/mL and 20 ng/mL, respectively, and the cells were further incubated in the incubator with 5% CO2 at 37° C. for 20 h. Then, after centrifugation at 2,000 rpm for 4 min, the supernatant was diluted 110×, and detected using an IL-6 ELISA kit. An OD450 value was read, and converted to an IL-6 concentration based on a standard curve, to calculate an IC50 value by fitting a dose-effect curve using GraphPad 5.0.
`Cc1nn(C2CCC(=O)NC2=O)c2cccc(C3CCN(CC4CCC(n5cc6cc(NC(=O)c7cnn8cccnc78)c(N7CCOCC7)cc6n5)CC4)CC3)c12` (stereo not drawn) [TM-26] gave an IC50 of 12.2 nM.
Work on `COc1cc2nn([C@H]3CC[C@H](CN4CCC(c5cccc6c5c(C)nn6C5CCC(=O)NC5=O)CC4)CC3)cc2cc1NC(=O)c1cnn2ccc(N3CCOCC3)nc12` (stereo partly drawn) [TM-27] yielded an IC50 of 9.53 nM.
For `COc1cc2nn([C@H]3CC[C@H](CN4CCN(c5cccc6c5c(C)nn6C5CCC(=O)NC5=O)CC4)CC3)cc2cc1NC(=O)c1cnn2cccnc12` (stereo partly drawn) [TM-30], the IC50 was 3.69 nM.
`COc1cc2nn([C@H]3CC[C@H](CN4CCN(c5cccc6c5c(C)nn6C5CCC(=O)NC5=O)CC4)CC3)cc2cc1NC(=O)c1cccc(C)n1` (stereo partly drawn) [TM-32] showed an IC50 of 22.2 nM.
In the case of `COc1cc2nn([C@H]3CC[C@H](CN4CC5CN(c6cccc7c6c(C)nn7C6CCC(=O)NC6=O)CC5C4)CC3)cc2cc1NC(=O)c1cccc(C)n1` (stereo partly drawn) [TM-35], the IC50 is reported as 29.5 nM.
`COc1cc2nn([C@H]3CC[C@H](CN4CC5CN(c6cccc7c6c(C)nn7C6CCC(=O)NC6=O)CC5C4)CC3)cc2cc1NC(=O)c1cccc(C(F)(F)F)n1` (stereo partly drawn) [TM-36] was tested, and the IC50 was 4.99 nM.
`COc1cc2nn([C@H]3CC[C@H](CN4CC5CN(c6cccc7c6c(C)nn7C6CCC(=O)NC6=O)CC5C4)CC3)cc2cc1NC(=O)c1cnn2cccnc12` (stereo partly drawn) [TM-37] was tested, and the IC50 was 4.99 nM.
`COc1cc2nn([C@H]3CC[C@H](CN4CC5CN(c6ccc7c(c6)c(C)nn7C6CCC(=O)NC6=O)CC5C4)CC3)cc2cc1NC(=O)c1cccc(C(F)(F)F)n1` (stereo partly drawn) [TM-39] showed an IC50 of 115 nM.
With `Cc1nn(C2CCC(=O)NC2=O)c2ccc(N3CC4CN(C[C@H]5CC[C@H](n6cc7cc(NC(=O)c8cnn9cccnc89)c(N8CCOCC8)cc7n6)CC5)CC4C3)cc12` (stereo partly drawn) [TM-40] the IC50 was 138 nM.
`Cc1nn(C2CCC(=O)NC2=O)c2cccc(N3CCN(C[C@H]4CC[C@H](n5cc6cc(NC(=O)c7cnn8cccnc78)c(N7C[C@@H]8C[C@H]7CO8)cc6n5)CC4)CC3)c12` (stereo partly drawn) [TM-45] showed an IC50 of 5.48 nM.
Molecule `Cc1nn(C2CCC(=O)NC2=O)c2cccc(N3CCN(C[C@H]4CC[C@H](n5cc6cc(NC(=O)c7cnn8cccnc78)c(N7CCOC8(CC8)C7)cc6n5)CC4)CC3)c12` (stereo partly drawn) [TM-47] has an IC50 of 45.8 nM.
Molecule `Cc1nn(C2CCC(=O)NC2=O)c2cccc(N3CC4CN(C[C@H]5CC[C@H](n6cc7cc(NC(=O)c8cnn9cccnc89)c(N8CCOC9(CC9)C8)cc7n6)CC5)CC4C3)c12` (stereo partly drawn) [TM-48] has an IC50 of 47.8 nM.
`Cc1nn(C2CCC(=O)NC2=O)c2cccc(N3CCN(C[C@H]4CC[C@H](n5cc6cc(NC(=O)c7cnn8cccnc78)c(C(F)F)cc6n5)CC4)CC3)c12` (stereo partly drawn) [TM-49] gave an IC50 of 16.5 nM.
`Cc1nn(C2CCC(=O)NC2=O)c2cccc(N3CC4CN(C[C@H]5CC[C@H](n6cc7cc(NC(=O)c8cnn9cccnc89)c(C(F)F)cc7n6)CC5)CC4C3)c12` (stereo partly drawn) [TM-50] gave an IC50 of 3.81 nM.
In the case of `Cc1nn(C2CCC(=O)NC2=O)c2cccc(N3CCC(CN4CCC(n5cc6cc(NC(=O)c7cnn8cccnc78)c(N7CCOCC7)cc6n5)CC4)CC3)c12` (stereo not drawn) [TM-51], the IC50 is reported as 9.15 nM.
`Cc1nn(C2CCC(=O)NC2=O)c2cccc(N3CCN(C[C@H]4CC[C@H](n5cc6cc(NC(=O)c7cnn8cccnc78)c(N7CCO[C@@H](C)C7)cc6n5)CC4)CC3)c12` (stereo partly drawn) [TM-52] gave an IC50 of 10.5 nM.
In the case of `Cc1nn(C2CCC(=O)NC2=O)c2cccc(N3CC4CN(C[C@H]5CC[C@H](n6cc7cc(NC(=O)c8cnn9cccnc89)c(N8CCO[C@@H](C)C8)cc7n6)CC5)CC4C3)c12` (stereo partly drawn) [TM-53], the IC50 is reported as 38.5 nM.
`Cc1nn(C2CCC(=O)NC2=O)c2cccc(N3CCN(C[C@H]4CC[C@H](n5cc6cc(NC(=O)c7cnn8cccnc78)c(N7CCO[C@H](C)C7)cc6n5)CC4)CC3)c12` (stereo partly drawn) [TM-54] gave an IC50 of 6.29 nM.
`Cc1nn(C2CCC(=O)NC2=O)c2cccc(OC3CCN(C[C@H]4CC[C@H](N5Cc6cc(NC(=O)c7cnn8cccnc78)c(N7CCOCC7)cc6C5=O)CC4)CC3)c12` (stereo partly drawn) [TM-60] gave an IC50 of 4.4 nM.
`Cc1nn(C2CCC(=O)NC2=O)c2cccc(N3CC4CN(C[C@H]5CC[C@H](n6cc7cc(NC(=O)c8cnn9cccnc89)c(N8C[C@H]9C[C@@H]8CO9)cc7n6)CC5)CC4C3)c12` (stereo partly drawn) [TM-62] was tested, and the IC50 was 11.9 nM.
Work on `Cc1nn(C2CCC(=O)NC2=O)c2cccc(N3CCN(C[C@H]4CC[C@H](N5Cc6cc(NC(=O)c7cnn8cccnc78)c(N7CCO[C@H](C)C7)cc6C5=O)CC4)CC3)c12` (stereo partly drawn) [TM-63] yielded an IC50 of 0.9 nM.
Molecule `Cc1nn(C2CCC(=O)NC2=O)c2cccc(N3CCN(C[C@H]4CC[C@H](N5Cc6cc(NC(=O)c7cnn8cccnc78)c(N(C)C)cc6C5=O)CC4)CC3)c12` (stereo partly drawn) [TM-65] has an IC50 of 7.15 nM.
`Cc1nn(C2CCC(=O)NC2=O)c2cccc(N3CCC(CN4CCC(N5Cc6cc(NC(=O)c7cnn8cccnc78)c(N7CCOCC7)cc6C5=O)CC4)CC3)c12` (stereo not drawn) [TM-67] gave an IC50 of 52.8 nM.
With `Cc1nn(C2CCC(=O)NC2=O)c2cccc(N3CCC(CN4CCC(N5Cc6cc(NC(=O)c7cnn8cccnc78)c(N7CCCOCC7)cc6C5=O)CC4)CC3)c12` (stereo not drawn) [TM-68] the IC50 was 3.23 nM.
In the case of `Cc1nn(C2CCC(=O)NC2=O)c2cccc(N3CCC(CN4CCC(N5Cc6cc(NC(=O)c7cnn8cccnc78)c(N7CCO[C@H](C)C7)cc6C5=O)CC4)CC3)c12` (stereo partly drawn) [TM-69], the IC50 is reported as 22.9 nM.
With `Cc1nn(C2CCC(=O)NC2=O)c2cccc(N3CCN(C[C@H]4CC[C@H](n5cc6cc(NC(=O)c7cnn8cccnc78)c(N(C)C)cc6n5)CC4)CC3)c12` (stereo partly drawn) [TM-70] the IC50 was 1.18 nM.
`Cc1nn(C2CCC(=O)NC2=O)c2cccc(N3CCC(CN4CCC(n5cc6cc(NC(=O)c7cnn8cccnc78)c(N(C)C)cc6n5)CC4)CC3)c12` (stereo not drawn) [TM-71] showed an IC50 of 24.9 nM.
For `Cc1nn(C2CCC(=O)NC2=O)c2cccc(N3CCC(CN4CCC(n5cc6cc(NC(=O)c7cnn8cccnc78)c(N7CCO[C@H](C)C7)cc6n5)CC4)CC3)c12` (stereo partly drawn) [TM-72], the IC50 was 6.82 nM.
Work on `Cc1nn(C2CCC(=O)NC2=O)c2cccc(N3CCN(C[C@H]4CC[C@H](n5cc6cc(NC(=O)c7cnn8cccnc78)c(N7CCOC[C@H]7C)cc6n5)CC4)CC3)c12` (stereo partly drawn) [TM-73] yielded an IC50 of 43.8 nM.
In the case of `Cc1nn(C2CCC(=O)NC2=O)c2cccc(N3CCN(C[C@H]4CC[C@H](n5cc6cc(NC(=O)c7cnn8cccnc78)c(N7CCOC[C@@H]7C)cc6n5)CC4)CC3)c12` (stereo partly drawn) [TM-74], the IC50 is reported as 29.4 nM.
With `Cc1nn(C2CCC(=O)NC2=O)c2cccc(N3CCN(C[C@H]4CC[C@H](n5cc6cc(NC(=O)c7cnn8cccnc78)c(N7CCCOCC7)cc6n5)CC4)CC3)c12` (stereo partly drawn) [TM-79] the IC50 was 39 nM.
`Cc1nn(C2CCC(=O)NC2=O)c2cccc(N3CCC(CN4CCC(n5cc6cc(NC(=O)c7cnn8cccnc78)c(N7CCCOCC7)cc6n5)CC4)CC3)c12` (stereo not drawn) [TM-82] gave an IC50 of 36.5 nM.
In the case of `Cc1nn(C2CCC(=O)NC2=O)c2ccnc(N3CCN(C[C@H]4CC[C@H](n5cc6cc(NC(=O)c7cnn8cccnc78)c(N(C)C)cc6n5)CC4)CC3)c12` (stereo partly drawn) [TM-103], the IC50 is reported as 0.72 nM.
Work on `Cc1nn(C2CCC(=O)NC2=O)c2nccc(N3CCC4(CC3)CN(CC3CCC(n5cc6cc(NC(=O)c7cnn8cccnc78)c(N(C)C)cc6n5)CC3)C4)c12` (stereo not drawn) [TM-114] yielded an IC50 of 4.79 nM.
